molecular target: Cyclin-dependent kinase 6 (Homo sapiens) (UniProt Q00534)
Sequence (Q00534 whole entry): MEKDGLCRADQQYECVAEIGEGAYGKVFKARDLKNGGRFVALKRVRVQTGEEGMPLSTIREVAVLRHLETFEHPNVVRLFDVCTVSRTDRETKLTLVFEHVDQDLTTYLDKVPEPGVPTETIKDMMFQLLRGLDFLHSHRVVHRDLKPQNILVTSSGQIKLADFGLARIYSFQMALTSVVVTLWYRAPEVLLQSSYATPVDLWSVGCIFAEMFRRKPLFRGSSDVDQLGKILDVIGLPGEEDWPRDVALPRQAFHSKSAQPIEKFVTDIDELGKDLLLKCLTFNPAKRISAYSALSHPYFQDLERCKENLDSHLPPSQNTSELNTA

Row | Compound | ΔTm
1 | O=C1Nc2ccc(S(=O)(=O)O)cc2/C1=C1/Nc2ccccc2/C1=N\O | 2.9 °C
2 | CC(=O)O/N=C1/C(=C2/C(=O)Nc3cc(Br)ccc32)Nc2ccccc21 [6-BROMOINDIRUBIN-3'-ACETOXIME] | 2.8 °C
3 | COc1cc(OC)c(/C=C2\C(=O)Nc3ccccc32)c(OC)c1 | 0.3 °C

molecular target: Mitogen-activated protein kinase 11 (Homo sapiens, UniProt Q15759)
Sequence (Q15759 whole entry): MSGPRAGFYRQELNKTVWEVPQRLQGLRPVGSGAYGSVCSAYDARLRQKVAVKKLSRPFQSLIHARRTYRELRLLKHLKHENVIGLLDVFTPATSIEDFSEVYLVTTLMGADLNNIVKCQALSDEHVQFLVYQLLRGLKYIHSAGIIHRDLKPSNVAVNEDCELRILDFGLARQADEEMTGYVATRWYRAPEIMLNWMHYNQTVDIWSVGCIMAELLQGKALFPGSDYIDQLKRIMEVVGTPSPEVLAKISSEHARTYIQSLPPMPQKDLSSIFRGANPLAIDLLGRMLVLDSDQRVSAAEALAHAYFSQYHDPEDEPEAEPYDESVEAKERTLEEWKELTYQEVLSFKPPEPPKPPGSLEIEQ

Row | Compound | ΔTm
4 | O=C1Nc2ccc(S(=O)(=O)O)cc2/C1=C1/Nc2ccccc2/C1=N\O | 1.4 °C
5 | CC(=O)O/N=C1/C(=C2/C(=O)Nc3cc(Br)ccc32)Nc2ccccc21 [6-BROMOINDIRUBIN-3'-ACETOXIME] | 1.1 °C
6 | COc1cc(OC)c(/C=C2\C(=O)Nc3ccccc32)c(OC)c1 | 0.6 °C

molecular target: Serine/threonine-protein kinase 26 (Homo sapiens) (UniProt Q9P289)
Sequence (Q9P289 2-416 limits assumed): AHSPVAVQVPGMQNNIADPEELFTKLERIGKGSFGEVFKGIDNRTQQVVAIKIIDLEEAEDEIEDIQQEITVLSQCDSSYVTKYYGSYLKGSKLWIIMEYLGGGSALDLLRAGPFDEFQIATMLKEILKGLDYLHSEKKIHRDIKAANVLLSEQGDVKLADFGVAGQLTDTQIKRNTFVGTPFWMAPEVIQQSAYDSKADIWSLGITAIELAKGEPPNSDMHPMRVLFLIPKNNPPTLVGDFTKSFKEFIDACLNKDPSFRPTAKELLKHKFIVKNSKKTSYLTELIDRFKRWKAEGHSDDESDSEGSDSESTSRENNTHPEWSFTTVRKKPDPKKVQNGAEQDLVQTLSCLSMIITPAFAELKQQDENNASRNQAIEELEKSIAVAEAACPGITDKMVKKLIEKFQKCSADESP

Row | Compound | ΔTm
7 | O=C1Nc2ccc(S(=O)(=O)O)cc2/C1=C1/Nc2ccccc2/C1=N\O | 0.5 °C
8 | CC(=O)O/N=C1/C(=C2/C(=O)Nc3cc(Br)ccc32)Nc2ccccc21 [6-BROMOINDIRUBIN-3'-ACETOXIME] | 0.1 °C
9 | COc1cc(OC)c(/C=C2\C(=O)Nc3ccccc32)c(OC)c1 | 0 °C

molecular target: Glycogen synthase kinase-3 beta (Homo sapiens, UniProt P49841)

Row | Compound | ΔTm
10 | O=C1Nc2ccc(S(=O)(=O)O)cc2/C1=C1/Nc2ccccc2/C1=N\O | 8.8 °C
11 | CC(=O)O/N=C1/C(=C2/C(=O)Nc3cc(Br)ccc32)Nc2ccccc21 [6-BROMOINDIRUBIN-3'-ACETOXIME] | 9.4 °C
12 | COc1cc(OC)c(/C=C2\C(=O)Nc3ccccc32)c(OC)c1 | 0.4 °C

molecular target: Cyclin-dependent kinase-like 1 (Homo sapiens) (UniProt Q00532)
Sequence (Q00532 whole entry): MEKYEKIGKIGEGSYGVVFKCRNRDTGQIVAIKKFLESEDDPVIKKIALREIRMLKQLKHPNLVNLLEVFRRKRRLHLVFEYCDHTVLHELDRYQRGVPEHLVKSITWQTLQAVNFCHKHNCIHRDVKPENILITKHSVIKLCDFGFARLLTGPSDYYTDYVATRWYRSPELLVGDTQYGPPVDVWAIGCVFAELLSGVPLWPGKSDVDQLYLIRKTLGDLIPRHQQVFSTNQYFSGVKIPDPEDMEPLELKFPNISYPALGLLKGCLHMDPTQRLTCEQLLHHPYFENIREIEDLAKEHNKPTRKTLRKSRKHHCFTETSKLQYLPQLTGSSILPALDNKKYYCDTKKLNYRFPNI

Row | Compound | ΔTm
13 | O=C1Nc2ccc(S(=O)(=O)O)cc2/C1=C1/Nc2ccccc2/C1=N\O | 3.1 °C
14 | CC(=O)O/N=C1/C(=C2/C(=O)Nc3cc(Br)ccc32)Nc2ccccc21 [6-BROMOINDIRUBIN-3'-ACETOXIME] | 3.2 °C
15 | COc1cc(OC)c(/C=C2\C(=O)Nc3ccccc32)c(OC)c1 | -0.5 °C

molecular target: T1, 3-phosphoinositide-dependent protein kinase 1 (Homo sapiens) (UniProt O15530)
T1 sequence (whole entry): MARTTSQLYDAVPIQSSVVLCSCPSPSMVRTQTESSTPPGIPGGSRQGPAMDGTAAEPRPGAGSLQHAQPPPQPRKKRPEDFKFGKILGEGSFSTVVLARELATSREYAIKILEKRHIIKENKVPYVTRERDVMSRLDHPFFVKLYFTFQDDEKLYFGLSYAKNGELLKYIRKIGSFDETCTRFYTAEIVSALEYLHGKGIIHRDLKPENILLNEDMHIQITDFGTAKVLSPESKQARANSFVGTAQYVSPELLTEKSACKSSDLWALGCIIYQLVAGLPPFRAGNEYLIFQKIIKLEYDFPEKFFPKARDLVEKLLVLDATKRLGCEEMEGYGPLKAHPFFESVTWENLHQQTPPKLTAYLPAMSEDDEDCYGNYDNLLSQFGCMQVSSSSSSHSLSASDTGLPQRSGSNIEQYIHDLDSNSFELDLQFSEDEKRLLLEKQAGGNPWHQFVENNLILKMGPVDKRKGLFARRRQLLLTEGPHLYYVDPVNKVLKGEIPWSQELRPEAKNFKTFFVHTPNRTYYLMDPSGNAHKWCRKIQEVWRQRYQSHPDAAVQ

Row | Compound | ΔTm
16 | O=C1Nc2ccc(S(=O)(=O)O)cc2/C1=C1/Nc2ccccc2/C1=N\O | 0.7 °C
17 | CC(=O)O/N=C1/C(=C2/C(=O)Nc3cc(Br)ccc32)Nc2ccccc21 [6-BROMOINDIRUBIN-3'-ACETOXIME] | 0.8 °C
18 | COc1cc(OC)c(/C=C2\C(=O)Nc3ccccc32)c(OC)c1 | -0.1 °C

molecular target: Calcium/calmodulin-dependent protein kinase type 1D (Homo sapiens) (UniProt Q8IU85)
Sequence (Q8IU85 whole entry, looked up): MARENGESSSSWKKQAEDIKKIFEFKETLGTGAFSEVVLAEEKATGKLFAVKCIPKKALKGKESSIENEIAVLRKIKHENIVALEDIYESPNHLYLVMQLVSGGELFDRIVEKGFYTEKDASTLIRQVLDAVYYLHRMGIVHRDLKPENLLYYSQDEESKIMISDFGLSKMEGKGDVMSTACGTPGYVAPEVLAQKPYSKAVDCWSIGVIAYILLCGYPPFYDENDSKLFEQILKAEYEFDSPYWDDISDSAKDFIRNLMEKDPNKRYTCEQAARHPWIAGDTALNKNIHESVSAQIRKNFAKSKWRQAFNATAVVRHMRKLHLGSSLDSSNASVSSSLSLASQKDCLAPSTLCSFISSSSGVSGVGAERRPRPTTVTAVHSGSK

Row | Compound | ΔTm
19 | O=C1Nc2ccc(S(=O)(=O)O)cc2/C1=C1/Nc2ccccc2/C1=N\O | 0.7 °C
20 | CC(=O)O/N=C1/C(=C2/C(=O)Nc3cc(Br)ccc32)Nc2ccccc21 [6-BROMOINDIRUBIN-3'-ACETOXIME] | -1.4 °C
21 | COc1cc(OC)c(/C=C2\C(=O)Nc3ccccc32)c(OC)c1 | -0.2 °C

molecular target: Ribosomal protein S6 kinase alpha-3 (Homo sapiens) (UniProt P51812)
Sequence (P51812 whole entry): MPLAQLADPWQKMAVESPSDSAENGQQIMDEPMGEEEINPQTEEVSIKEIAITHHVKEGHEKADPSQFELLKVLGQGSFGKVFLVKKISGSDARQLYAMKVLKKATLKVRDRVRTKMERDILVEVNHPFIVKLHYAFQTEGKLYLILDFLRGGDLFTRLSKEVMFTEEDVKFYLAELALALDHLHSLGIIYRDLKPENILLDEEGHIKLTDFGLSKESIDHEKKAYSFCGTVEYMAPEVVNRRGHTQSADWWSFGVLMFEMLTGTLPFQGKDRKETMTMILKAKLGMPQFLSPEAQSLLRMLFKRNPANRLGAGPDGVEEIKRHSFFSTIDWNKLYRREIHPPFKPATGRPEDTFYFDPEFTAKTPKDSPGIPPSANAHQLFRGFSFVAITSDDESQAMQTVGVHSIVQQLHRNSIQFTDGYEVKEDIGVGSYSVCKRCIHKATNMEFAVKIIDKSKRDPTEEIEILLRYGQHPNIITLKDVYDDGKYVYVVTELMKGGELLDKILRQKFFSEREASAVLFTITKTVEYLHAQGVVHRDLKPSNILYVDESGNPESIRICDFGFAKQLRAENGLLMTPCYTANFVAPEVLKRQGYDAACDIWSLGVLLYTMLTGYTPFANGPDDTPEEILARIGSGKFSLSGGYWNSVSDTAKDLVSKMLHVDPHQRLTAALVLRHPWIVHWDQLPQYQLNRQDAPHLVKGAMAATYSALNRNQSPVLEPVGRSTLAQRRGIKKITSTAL

Row | Compound | ΔTm
22 | O=C1Nc2ccc(S(=O)(=O)O)cc2/C1=C1/Nc2ccccc2/C1=N\O | 6.1 °C
23 | CC(=O)O/N=C1/C(=C2/C(=O)Nc3cc(Br)ccc32)Nc2ccccc21 [6-BROMOINDIRUBIN-3'-ACETOXIME] | 4.5 °C
24 | COc1cc(OC)c(/C=C2\C(=O)Nc3ccccc32)c(OC)c1 | 0.1 °C

molecular target: Dual specificity protein kinase CLK1 (Homo sapiens) (UniProt P49759)
Sequence (P49759 whole entry, looked up): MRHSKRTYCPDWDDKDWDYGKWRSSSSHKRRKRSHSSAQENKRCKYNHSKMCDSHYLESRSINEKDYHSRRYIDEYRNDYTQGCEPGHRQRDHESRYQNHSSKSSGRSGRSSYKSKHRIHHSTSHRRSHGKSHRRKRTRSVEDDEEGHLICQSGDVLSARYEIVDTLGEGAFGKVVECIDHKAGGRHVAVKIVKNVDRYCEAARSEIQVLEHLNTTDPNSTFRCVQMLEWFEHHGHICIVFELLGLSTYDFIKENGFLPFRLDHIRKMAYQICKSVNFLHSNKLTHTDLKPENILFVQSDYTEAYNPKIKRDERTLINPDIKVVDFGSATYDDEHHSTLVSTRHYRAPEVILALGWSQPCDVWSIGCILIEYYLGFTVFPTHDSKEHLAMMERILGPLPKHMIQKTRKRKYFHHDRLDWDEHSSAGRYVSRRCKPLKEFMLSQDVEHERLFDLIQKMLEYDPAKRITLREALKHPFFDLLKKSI

Row | Compound | ΔTm
25 | O=C1Nc2ccc(S(=O)(=O)O)cc2/C1=C1/Nc2ccccc2/C1=N\O | 3.9 °C
26 | CC(=O)O/N=C1/C(=C2/C(=O)Nc3cc(Br)ccc32)Nc2ccccc21 [6-BROMOINDIRUBIN-3'-ACETOXIME] | -0.3 °C
27 | COc1cc(OC)c(/C=C2\C(=O)Nc3ccccc32)c(OC)c1 | 0.1 °C

molecular target: T2, Serine/threonine-protein kinase Nek2 (Homo sapiens) (UniProt P51955)
T2 sequence (whole entry): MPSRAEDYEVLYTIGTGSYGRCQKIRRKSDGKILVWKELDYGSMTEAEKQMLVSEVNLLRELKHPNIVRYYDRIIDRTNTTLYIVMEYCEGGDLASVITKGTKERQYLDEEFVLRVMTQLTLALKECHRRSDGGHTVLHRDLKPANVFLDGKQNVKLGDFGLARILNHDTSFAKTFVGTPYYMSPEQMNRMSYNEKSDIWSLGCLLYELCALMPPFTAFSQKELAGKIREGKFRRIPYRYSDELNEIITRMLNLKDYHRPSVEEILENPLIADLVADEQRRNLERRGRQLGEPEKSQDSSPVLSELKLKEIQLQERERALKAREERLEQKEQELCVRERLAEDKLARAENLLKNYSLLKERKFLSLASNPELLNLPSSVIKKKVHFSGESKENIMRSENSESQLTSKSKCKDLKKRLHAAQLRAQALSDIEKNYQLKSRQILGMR

Row | Compound | ΔTm
28 | O=C1Nc2ccc(S(=O)(=O)O)cc2/C1=C1/Nc2ccccc2/C1=N\O | 3.5 °C
29 | CC(=O)O/N=C1/C(=C2/C(=O)Nc3cc(Br)ccc32)Nc2ccccc21 [6-BROMOINDIRUBIN-3'-ACETOXIME] | 1.9 °C
30 | COc1cc(OC)c(/C=C2\C(=O)Nc3ccccc32)c(OC)c1 | 0.4 °C

molecular target: Serine/threonine-protein kinase PAK 5 (Homo sapiens) (UniProt Q9P286)

Row | Compound | ΔTm
31 | O=C1Nc2ccc(S(=O)(=O)O)cc2/C1=C1/Nc2ccccc2/C1=N\O | 2.1 °C
32 | CC(=O)O/N=C1/C(=C2/C(=O)Nc3cc(Br)ccc32)Nc2ccccc21 [6-BROMOINDIRUBIN-3'-ACETOXIME] | 0.9 °C
33 | COc1cc(OC)c(/C=C2\C(=O)Nc3ccccc32)c(OC)c1 | -0.3 °C

molecular target: Serine/threonine-protein kinase 25 (Homo sapiens) (UniProt O00506)
Sequence (O00506 whole entry, looked up): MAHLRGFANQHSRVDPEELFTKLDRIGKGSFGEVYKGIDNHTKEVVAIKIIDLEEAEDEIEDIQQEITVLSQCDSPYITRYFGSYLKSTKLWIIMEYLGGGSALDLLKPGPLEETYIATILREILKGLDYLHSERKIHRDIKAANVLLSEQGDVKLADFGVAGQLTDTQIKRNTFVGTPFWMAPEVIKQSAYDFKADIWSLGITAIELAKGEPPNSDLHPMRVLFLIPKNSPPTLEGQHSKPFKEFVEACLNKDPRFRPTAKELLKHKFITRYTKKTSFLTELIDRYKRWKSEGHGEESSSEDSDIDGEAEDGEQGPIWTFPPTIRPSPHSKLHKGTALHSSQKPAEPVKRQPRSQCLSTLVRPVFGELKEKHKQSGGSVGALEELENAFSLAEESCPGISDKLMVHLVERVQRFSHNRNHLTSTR

Row | Compound | ΔTm
34 | O=C1Nc2ccc(S(=O)(=O)O)cc2/C1=C1/Nc2ccccc2/C1=N\O | 2.2 °C
35 | CC(=O)O/N=C1/C(=C2/C(=O)Nc3cc(Br)ccc32)Nc2ccccc21 [6-BROMOINDIRUBIN-3'-ACETOXIME] | 1.1 °C
36 | COc1cc(OC)c(/C=C2\C(=O)Nc3ccccc32)c(OC)c1 | 0.1 °C

molecular target: Serine/threonine-protein kinase Chk2 (Homo sapiens, UniProt O96017)

Row | Compound | ΔTm
37 | O=C1Nc2ccc(S(=O)(=O)O)cc2/C1=C1/Nc2ccccc2/C1=N\O | 4.5 °C
38 | CC(=O)O/N=C1/C(=C2/C(=O)Nc3cc(Br)ccc32)Nc2ccccc21 [6-BROMOINDIRUBIN-3'-ACETOXIME] | 0.1 °C
39 | COc1cc(OC)c(/C=C2\C(=O)Nc3ccccc32)c(OC)c1 | -0.7 °C

molecular target: Serine/threonine-protein kinase pim-1 (Homo sapiens) (UniProt P11309)

Row | Compound | ΔTm
40 | O=C1Nc2ccc(S(=O)(=O)O)cc2/C1=C1/Nc2ccccc2/C1=N\O | 3.3 °C
41 | CC(=O)O/N=C1/C(=C2/C(=O)Nc3cc(Br)ccc32)Nc2ccccc21 [6-BROMOINDIRUBIN-3'-ACETOXIME] | -0.2 °C
42 | COc1cc(OC)c(/C=C2\C(=O)Nc3ccccc32)c(OC)c1 | -1 °C

molecular target: T3, Serine/threonine-protein kinase PLK4 (Homo sapiens) (UniProt O00444)
T3 sequence (whole entry): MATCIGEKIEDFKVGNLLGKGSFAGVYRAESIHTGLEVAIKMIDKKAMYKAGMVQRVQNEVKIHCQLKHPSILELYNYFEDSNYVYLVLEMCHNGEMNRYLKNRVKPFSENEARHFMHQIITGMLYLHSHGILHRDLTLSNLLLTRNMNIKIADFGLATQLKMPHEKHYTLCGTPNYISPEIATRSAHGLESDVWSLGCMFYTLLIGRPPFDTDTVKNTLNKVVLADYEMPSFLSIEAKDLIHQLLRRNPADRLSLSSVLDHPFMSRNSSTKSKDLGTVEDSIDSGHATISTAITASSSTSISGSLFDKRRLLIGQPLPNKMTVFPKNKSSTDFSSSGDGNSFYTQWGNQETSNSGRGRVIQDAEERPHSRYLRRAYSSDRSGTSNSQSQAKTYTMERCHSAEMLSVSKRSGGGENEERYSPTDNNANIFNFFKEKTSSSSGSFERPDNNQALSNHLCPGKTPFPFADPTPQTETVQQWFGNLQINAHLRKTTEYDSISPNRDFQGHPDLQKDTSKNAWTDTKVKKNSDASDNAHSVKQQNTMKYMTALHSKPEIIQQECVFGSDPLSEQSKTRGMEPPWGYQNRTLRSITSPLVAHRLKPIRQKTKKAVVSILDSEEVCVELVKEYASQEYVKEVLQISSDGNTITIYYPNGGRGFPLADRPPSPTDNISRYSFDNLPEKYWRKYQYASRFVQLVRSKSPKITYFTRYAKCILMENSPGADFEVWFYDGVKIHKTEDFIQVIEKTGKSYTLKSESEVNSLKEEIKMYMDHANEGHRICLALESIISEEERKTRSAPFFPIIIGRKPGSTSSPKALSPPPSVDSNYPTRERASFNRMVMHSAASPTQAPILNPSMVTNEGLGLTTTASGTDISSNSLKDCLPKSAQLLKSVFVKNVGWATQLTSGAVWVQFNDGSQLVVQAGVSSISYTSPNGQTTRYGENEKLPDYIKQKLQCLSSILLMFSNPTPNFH

Row | Compound | ΔTm
43 | O=C1Nc2ccc(S(=O)(=O)O)cc2/C1=C1/Nc2ccccc2/C1=N\O | 10.4 °C
44 | CC(=O)O/N=C1/C(=C2/C(=O)Nc3cc(Br)ccc32)Nc2ccccc21 [6-BROMOINDIRUBIN-3'-ACETOXIME] | 6.7 °C
45 | COc1cc(OC)c(/C=C2\C(=O)Nc3ccccc32)c(OC)c1 | 0.3 °C

molecular target: STE20-like serine/threonine-protein kinase (Homo sapiens) (UniProt Q9H2G2)
Sequence (Q9H2G2 whole entry, looked up): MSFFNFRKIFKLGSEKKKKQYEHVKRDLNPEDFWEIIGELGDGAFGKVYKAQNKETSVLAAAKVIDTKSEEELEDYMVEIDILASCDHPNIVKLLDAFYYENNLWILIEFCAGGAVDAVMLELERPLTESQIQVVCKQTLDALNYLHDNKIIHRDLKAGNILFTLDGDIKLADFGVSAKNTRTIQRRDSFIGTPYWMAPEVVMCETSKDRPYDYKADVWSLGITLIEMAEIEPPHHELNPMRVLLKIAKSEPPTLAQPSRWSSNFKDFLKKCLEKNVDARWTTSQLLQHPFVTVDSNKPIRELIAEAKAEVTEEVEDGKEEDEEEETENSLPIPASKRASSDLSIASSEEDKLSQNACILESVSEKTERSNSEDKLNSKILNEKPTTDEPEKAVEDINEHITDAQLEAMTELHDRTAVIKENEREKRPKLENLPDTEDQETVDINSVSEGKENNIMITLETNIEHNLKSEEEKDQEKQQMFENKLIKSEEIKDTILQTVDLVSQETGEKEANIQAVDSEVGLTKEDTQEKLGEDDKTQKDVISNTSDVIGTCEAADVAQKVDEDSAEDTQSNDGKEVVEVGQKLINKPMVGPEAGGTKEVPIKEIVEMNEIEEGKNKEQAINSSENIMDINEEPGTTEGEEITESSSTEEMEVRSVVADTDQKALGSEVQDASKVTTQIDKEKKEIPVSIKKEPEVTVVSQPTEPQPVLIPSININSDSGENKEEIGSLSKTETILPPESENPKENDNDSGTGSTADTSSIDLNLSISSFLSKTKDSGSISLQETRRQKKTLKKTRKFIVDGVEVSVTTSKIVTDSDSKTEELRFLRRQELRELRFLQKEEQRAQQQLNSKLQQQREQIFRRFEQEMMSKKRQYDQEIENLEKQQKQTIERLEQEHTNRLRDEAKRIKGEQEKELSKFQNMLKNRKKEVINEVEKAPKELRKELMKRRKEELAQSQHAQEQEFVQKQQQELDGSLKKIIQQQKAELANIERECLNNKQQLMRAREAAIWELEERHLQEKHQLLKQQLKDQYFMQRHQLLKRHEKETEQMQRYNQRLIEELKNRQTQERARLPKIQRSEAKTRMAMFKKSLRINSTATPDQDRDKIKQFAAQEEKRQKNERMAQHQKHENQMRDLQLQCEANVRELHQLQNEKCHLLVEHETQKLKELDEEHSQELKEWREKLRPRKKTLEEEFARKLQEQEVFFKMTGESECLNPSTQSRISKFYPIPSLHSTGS

Row | Compound | ΔTm
46 | O=C1Nc2ccc(S(=O)(=O)O)cc2/C1=C1/Nc2ccccc2/C1=N\O | 1.1 °C
47 | CC(=O)O/N=C1/C(=C2/C(=O)Nc3cc(Br)ccc32)Nc2ccccc21 [6-BROMOINDIRUBIN-3'-ACETOXIME] | 2.1 °C
48 | COc1cc(OC)c(/C=C2\C(=O)Nc3ccccc32)c(OC)c1 | 0.1 °C
